In US12139492B2 (Endotarget Inc., priority 2021, dated 2024):

Assays:
Mino cells = assay: Antiproliferative effect, MTS cell viability assay, Mino cells; format: cell-based; conditions: Homo sapiens, MINO, Mino mantle cell lymphoma cells; read-out: IC50 (anti-proliferation) Mino cells
Summary of the method: (§1)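 Cells were exposed to compound at 0, 0.001, 0.01, 0.1, 1 and 10 μM for 72 h. Viability was then measured by MTS assay, reading formazan produced by metabolically active cells as absorbance at 490 nm.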

JeKo-1 cells = assay: Antiproliferative effect, MTS cell viability assay, JeKo-1 cells; format: cell-based; conditions: Homo sapiens; JeKo-1 mantle cell lymphoma cells; read-out: IC50 (anti-proliferation) JeKO-1 cells
Summary of the method: as §1

BTK = BTK (Homo sapiens, UniProt Q06187); assay: Degradation of BTK protein in Namalwa cells (Western blot; DC50, Dmax); conditions: for DC50: read-out: DC50 (BTK degradation), concentration giving 50% reduction of BTK expression level, cell line not given; for Dmax: read-out: Dmax (BTK degradation)
BTK, sequence (Q06187 whole entry): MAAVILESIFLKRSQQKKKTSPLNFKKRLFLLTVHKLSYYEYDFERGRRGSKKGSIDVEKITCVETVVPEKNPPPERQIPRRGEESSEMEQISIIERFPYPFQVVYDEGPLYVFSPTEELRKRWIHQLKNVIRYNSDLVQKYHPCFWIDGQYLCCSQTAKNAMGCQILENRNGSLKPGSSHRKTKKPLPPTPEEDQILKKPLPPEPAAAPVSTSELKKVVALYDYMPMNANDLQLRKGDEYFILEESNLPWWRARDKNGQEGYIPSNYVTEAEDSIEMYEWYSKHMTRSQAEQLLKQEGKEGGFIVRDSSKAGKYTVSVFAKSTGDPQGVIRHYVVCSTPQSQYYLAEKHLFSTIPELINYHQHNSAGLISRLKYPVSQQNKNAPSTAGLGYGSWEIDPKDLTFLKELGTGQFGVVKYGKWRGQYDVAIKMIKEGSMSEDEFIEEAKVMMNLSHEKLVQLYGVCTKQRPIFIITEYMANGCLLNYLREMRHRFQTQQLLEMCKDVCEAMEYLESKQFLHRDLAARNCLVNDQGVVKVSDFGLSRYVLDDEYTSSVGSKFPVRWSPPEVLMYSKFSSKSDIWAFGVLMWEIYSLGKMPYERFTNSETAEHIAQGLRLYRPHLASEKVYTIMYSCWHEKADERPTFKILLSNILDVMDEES

| SMILES | IC50 (Mino cells) [µM] | IC50 (JeKo-1 cells) [µM] | degradation of BTK protein (BTK; Namalwa B lymphocyte cells, various concentrations, 24 hours, Western blot) | DC50 (BTK) [µM] | Dmax (BTK) [%] |
| --- | --- | --- | --- | --- | --- |
| Nc1ncnc2c1c(-c1ccc(Oc3ccccc3)cc1)nn2[C@@H]1CCCN(C2CN(C(=O)N3CC(N4CCN(c5ccc6c(c5)CN(C5CCC(=O)NC5=O)C6=O)CC4)C3)C2)C1 (stereo partly drawn) [Compound 480, 3-(5-(4-(1-(3-((R)-3-(4-amino-3-(4-phenoxyphenyl)-1H-pyrazolo[3,4-d]pyrimidin-1-yl)piperidin-1-yl)azetidine-1-carbonyl)azetidin-3-yl)piperazin-1-yl)-1-oxoisoindolin-2-yl)piperidine-2,6-dione] | < 1 | 1 to 10 | dose-dependent degradation | < 0.01 | > 90 |
| Nc1ncnc2c1c(-c1ccc(Oc3ccccc3)cc1)nn2[C@@H]1CCCN(C2CN(C(=O)N3CCC(N4CCN(c5ccc6c(c5)C(=O)N(C5CCC(=O)NC5=O)C6=O)CC4)CC3)C2)C1 (stereo partly drawn) [Compound 481, 5-(4-(1-(3-((R)-3-(4-amino-3-(4-phenoxyphenyl)-1H-pyrazolo[3,4-d]pyrimidin-1-yl)piperidin-1-yl)azetidin-1-carbonyl)piperidin-4-yl)piperazin-1-yl)-2-(2,6-dioxopiperidin-3-yl)isoindoline-1,3-dione] | 1 to 10 | 1 to 10 | – | < 0.01 | > 90 |
| Nc1ncnc2c1c(-c1ccc(Oc3ccccc3)cc1)nn2[C@@H]1CCCN(C2CN(C(=O)N3CCC(N4CCN(c5ccc6c(c5)CN(C5CCC(=O)NC5=O)C6=O)CC4)CC3)C2)C1 (stereo partly drawn) [Compound 482, 3-(5-(4-(1-(3-((R)-3-(4-amino-3-(4-phenoxyphenyl)-1H-pyrazolo[3,4-d]pyrimidin-1-yl)piperidin-1-yl)azetidine-1-carbonyl)piperidin-4-yl)piperazin-1-yl)-1-oxoisoindolin-2-yl)piperidine-2,6-dione] | < 1 | 1 to 10 | – | < 0.01 | > 90 |
| Nc1ncnc2c1c(-c1ccc(Oc3ccccc3)cc1)nn2C1CCN(C(=O)N2CC(N3CCN(c4ccc5c(c4)C(=O)N([C@H]4CCC(=O)NC4=O)C5=O)CC3)C2)CC1 [Compound 483, (S)-5-(4-(1-(4-(4-amino-3-(4-phenoxyphenyl)-1H-pyrazolo[3,4-b]pyrimidin-1-yl)piperidine-1-carbonyl)azetidin-3-yl)piperazin-1-yl)-2-(2,6-dioxopiperidin-3-yl)isoindoline-1,3-dione] | < 1 | 1 to 10 | – | < 0.01 | > 90 |
| Nc1ncnc2c1c(-c1ccc(Oc3ccccc3)cc1)nn2C1CCN(C(=O)N2CC(N3CCN(c4ccc5c(c4)C(=O)N([C@@H]4CCC(=O)NC4=O)C5=O)CC3)C2)CC1 [Compound 485, (R)-5-(4-(1-(4-(4-amino-3-(4-phenoxyphenyl)-1H-pyrazolo[3,4-d]pyrimidin-1-yl)piperidine-1-carbonyl)azetidin-3-yl)piperazin-1-yl)-2-(2,6-dioxopiperidin-3-yl)isoindoline-1,3-dione] | < 1 | < 1 | – | < 0.01 | > 90 |
| Nc1ncnc2c1c(-c1ccc(Oc3ccccc3)cc1)nn2C1CCN(C(=O)N2CC(N3CCN(c4ccc5c(c4)CN([C@@H]4CCC(=O)NC4=O)C5=O)CC3)C2)CC1 [Compound 486, (R)-3-(5-(4-(1-(4-(4-amino-3-(4-phenoxyphenyl)-1H-pyrazolo[3,4-d]pyrimidin-1-yl)piperidine-1-carbonyl)azetidin-3-yl)piperazin-1-yl)-1-oxoisoindolin-2-yl)piperidine-2,6-dione] | < 1 | < 1 | – | < 0.01 | > 90 |
| Nc1ncnc2c1c(-c1ccc(Oc3ccccc3)cc1)nn2[C@@H]1CCCN(C(=O)N2CC(N3CCN(c4ccc5c(c4)C(=O)N(C4CCC(=O)NC4=O)C5=O)CC3)C2)C1 (stereo partly drawn) [Compound 487, 5-(4-(1-((R)-3-(4-amino-3-(4-phenoxyphenyl)-1H-pyrazolo[3,4-d]pyrimidin-1-yl)piperidine-1-carbonyl)azetidin-3-yl)piperazin-1-yl)-2-(2,6-dioxopiperidin-3-yl)isoindoline-1,3-dione] | < 1 | < 1 | – | < 0.01 | > 90 |
| Nc1ncnc2c1c(-c1ccc(Oc3ccccc3)cc1)nn2[C@@H]1CCCN(C(=O)N2CC(N3CCN(c4ccc5c(c4)CN(C4CCC(=O)NC4=O)C5=O)CC3)C2)C1 (stereo partly drawn) [Compound 488, 3-(5-(4-(1-((R)-3-(4-amino-3-(4-phenoxyphenyl)-1H-pyrazolo[3,4-d]pyrimidin-1-yl)piperidine-1-carbonyl)azetidin-3-yl)piperazin-1-yl)-1-oxoisoindolin-2-yl)piperidine-2,6-dione] | < 1 | < 1 | – | < 0.01 | > 90 |
| Nc1ncnc2c1c(-c1ccc(Oc3ccccc3)cc1)nn2[C@@H]1CCCN(C(=O)N2CC(N3CCN(c4ccc5c(c4)C(=O)N([C@H]4CCC(=O)NC4=O)C5=O)CC3)C2)C1 [Compound 489, 5-(4-(1-((R)-3-(4-amino-3-(4-phenoxyphenyl)-1H-pyrazolo[3,4-d]pyrimidin-1-yl)piperidine-1-carbonyl)azetidin-3-yl)piperazin-1-yl)-2-((S)-2,6-dioxopiperidin-3-yl)isoindoline-1,3-dione] | < 1 | < 1 | – | < 0.01 | > 90 |
| Nc1ncnc2c1c(-c1ccc(Oc3ccccc3)cc1)nn2[C@@H]1CCCN(C(=O)N2CC(N3CCN(c4ccc5c(c4)C(=O)N([C@@H]4CCC(=O)NC4=O)C5=O)CC3)C2)C1 [Compound 491, 5-(4-(1-((R)-3-(4-amino-3-(4-phenoxyphenyl)-1H-pyrazolo[3,4-d]pyrimidin-1-yl)piperidine-1-carbonyl)azetidin-3-yl)piperazin-1-yl)-2-((R)-2,6-dioxopiperidin-3-yl)isoindoline-1,3-dione] | < 1 | < 1 | – | 0.01 to 0.05 | > 90 |
| Nc1ncnc2c1c(-c1ccc(Oc3ccccc3)cc1)nn2[C@@H]1CCCN(C(=O)N2CC(N3CCN(c4ccc5c(c4)CN([C@@H]4CCC(=O)NC4=O)C5=O)CC3)C2)C1 [Compound 492, (R)-3-(5-(4-(1-((R)-3-(4-amino-3-(4-phenoxyphenyl)-1H-pyrazolo[3,4-d]pyrimidin-1-yl)piperidine-1-carbonyl)azetidin-3-yl)piperazin-1-yl)-1-oxoisoindolin-2-yl)piperidine-2,6-dione] | < 1 | < 1 | – | < 0.01 | > 90 |
| NC1=NC=NC2C1C(c1ccc(Oc3ccccc3)cc1)=NN2C1CCN(C(=O)N2CC(C3CN(c4ccc5c(c4)C(=O)N(C4CCC(=O)NC4=O)C5=O)C3)C2)CC1 (stereo not drawn) [Compound 493, 5-(1′-(4-(4-amino-3-(4-phenoxyphenyl)-3a,7a-dihydro-1H-pyrazolo[3,4-d]pyrimidin-1-yl)piperidine-1-carbonyl)-[3,3′-biazetidin]-1-yl)-2-(2,6-dioxopiperidin-3-yl)isoindoline-1,3-dione] | < 1 | < 1 | – | 0.01 to 0.05 | > 90 |
| NC1=NC=NC2C1C(c1ccc(Oc3ccccc3)cc1)=NN2C1CCN(C(=O)N2CC(C3CN(c4ccc5c(c4)CN(C4CCC(=O)NC4=O)C5=O)C3)C2)CC1 (stereo not drawn) [Compound 494, 3-(5-(1′-(4-(4-amino-3-(4-phenoxyphenyl)-3a,7a-dihydro-1H-pyrazolo[3,4-d]pyrimidin-1-yl)piperidine-1-carbonyl)-[3,3′-biazetidin]-1-yl)-1-oxoisoindolin-2-yl)piperidine-2,6-dione] | < 1 | < 1 | – | < 0.01 | > 90 |
| NC1=NC=NC2C1C(c1ccc(Oc3ccccc3)cc1)=NN2C1CCN(C(=O)N2CC(C3CN(c4ccc5c(c4)CN([C@H]4CCC(=O)NC4=O)C5=O)C3)C2)CC1 (stereo partly drawn) [Compound 495, (3S)-3-(5-(1′-(4-(4-amino-3-(4-phenoxyphenyl)-3a,7a-dihydro-1H-pyrazolo[3,4-d]pyrimidin-1-yl)piperidine-1-carbonyl)-[3,3′-biazetidin]-1-yl)-1-oxoisoindolin-2-yl)piperidine-2,6-dione] | < 1 | < 1 | – | < 0.01 | > 90 |
| NC1=NC=NC2C1C(c1ccc(Oc3ccccc3)cc1)=NN2C1CCN(C(=O)N2CC(C3CN(c4ccc5c(c4)CN([C@@H]4CCC(=O)NC4=O)C5=O)C3)C2)CC1 (stereo partly drawn) [Compound 496, (3R)-3-(5-(1′-(4-(4-amino-3-(4-phenoxyphenyl)-3a,7a-dihydro-1H-pyrazolo[3,4-d]pyrimidin-1-yl)piperidine-1-carbonyl)-[3,3′-biazetidin]-1-yl)-1-oxoisoindolin-2-yl)piperidine-2,6-dione] | < 1 | < 1 | – | < 0.01 | > 90 |
| NC1=NC=NC2C1C(c1ccc(Oc3ccccc3)cc1)=NN2[C@@H]1CCCN(C(=O)N2CC(C3CN(c4ccc5c(c4)C(=O)N(C4CCC(=O)NC4=O)C5=O)C3)C2)C1 (stereo partly drawn) [Compound 497, 5-(1′-((3R)-3-(4-amino-3-(4-phenoxyphenyl)-3a,7a-dihydro-1H-pyrazolo[3,4-d]pyrimidin-1-yl)piperidine-1-carbonyl)-[3,3′-biazetidin]-1-yl)-2-(2,6-dioxopiperidin-3-yl)isoindoline-1,3-dione] | < 1 | < 1 | – | 0.01 to 0.05 | > 90 |
| NC1=NC=NC2C1C(c1ccc(Oc3ccccc3)cc1)=NN2[C@@H]1CCCN(C(=O)N2CC(C3CN(c4ccc5c(c4)CN(C4CCC(=O)NC4=O)C5=O)C3)C2)C1 (stereo partly drawn) [Compound 498, 3-(5-(1′-((3R)-3-(4-amino-3-(4-phenoxyphenyl)-3a,7a-dihydro-1H-pyrazolo[3,4-d]pyrimidin-1-yl)piperidin-1-carbonyl)-[3,3′-biazetidin]-1-yl)-1-oxoisoindolin-2-yl)piperidine-2,6-dione] | < 1 | < 1 | – | < 0.01 | > 90 |
